Results from US20210323950A1, “HERBICIDALLY ACTIVE BICYCLIC BENZOYLPYRAZOLES” (Bayer Aktiengesellschaft, priority 2018, published 2021).

What was measured:
Assay type in all cases: in vivo
[1] = test system: Amaranthus retroflexus (AMARE); assay: Post-emergence herbicidal action against AMARE; conditions: 20 g/ha, post-emergence at one-leaf stage, rated visually after about 3 weeks vs untreated controls
Procedure: (§1) AMARE: Amaranthus retroflexus 2. Post-Emergence Herbicidal Action and Crop Plant Compatibility Seeds of monocotyledonous and dicotyledonous weeds and crop plants are placed in sandy loam in plastic or organic planting pots, covered with soil and cultivated in a greenhouse under controlled growth conditions. 2 to 3 weeks after sowing, the test plants are treated at the one-leaf stage. The compounds of the invention, formulated in the form of wettable powders (WP) or as emulsion concentrates (EC), are then sprayed onto the green parts of the plants as aqueous suspension or emulsion with addition of 0.5% additive at a water application rate of […] (converted). After the test plants had been kept in the greenhouse under optimum growth conditions for about 3 weeks, the activity of the preparations is rated visually in comparison to untreated controls. The tables below show the herbicidal activity of numerous compounds according to the invention against important harmful plants. For example, 100% activity=the plants have died, 0% activity=like control plants.

Stellaria media (STEME) [2] = assay: Post-emergence herbicidal action against STEME; conditions: 20 g/ha, post-emergence at one-leaf stage, rated visually after about 3 weeks vs untreated controls
Procedure: as §1, with “STEME: Stellaria media” for “AMARE: Amaranthus retroflexus”

Veronica persica (VERPE) [3] = assay: Post-emergence herbicidal action against VERPE; conditions: 20 g/ha, post-emergence at one-leaf stage, rated visually after about 3 weeks vs untreated controls
Procedure: as §1, with “VERPE: Veronica persica” for “AMARE: Amaranthus retroflexus”

[4] = test system: Amaranthus retroflexus (AMARE); assay: Pre-emergence herbicidal action against AMARE; conditions: scored visually after about 3 weeks vs untreated controls
Source text: (§2) AMARE: Amaranthus retroflexus 1. Pre-Emergence Herbicidal Action and Crop Plant Compatibility Seeds of monocotyledonous and dicotyledonous weed plants and crop plants are placed in plastic or organic planting pots and covered with soil. The compounds of the invention, formulated in the form of wettable powders (WP) or as emulsion concentrates (EC), are then applied onto the surface of the covering soil as aqueous suspension or emulsion with addition of 0.5% additive at a water application rate of […] (converted). After the treatment, the pots are placed in a greenhouse and kept under good growth conditions for the trial plants. After about 3 weeks, the effect of the preparations is scored visually in comparison with untreated controls as percentages. The tables below show the herbicidal activity of numerous compounds according to the invention against important harmful plants. For example, 100% activity=the plants have died, 0% activity=like control plants.

Stellaria media (STEME) [5] = assay: Pre-emergence herbicidal action against STEME; conditions: 80 g/ha, scored visually after about 3 weeks vs untreated controls
Source text: as §2, with “STEME: Stellaria media” for “AMARE: Amaranthus retroflexus”

Veronica persica (VERPE) [6] = assay: Pre-emergence herbicidal action against VERPE; conditions: 80 g/ha, scored visually after about 3 weeks vs untreated controls
Source text: as §2, with “VERPE: Veronica persica” for “AMARE: Amaranthus retroflexus”

[7] = test system: Echinochloa crus-galli (ECHCG); assay: Post-emergence herbicidal action against ECHCG; conditions: 20 g/ha, post-emergence at one-leaf stage, rated visually after about 3 weeks vs untreated controls
Procedure: as §1, with “ECHCG: Echinochloa crus-galli” for “AMARE: Amaranthus retroflexus”

Viola tricolor (VIOTR) = assay: Post-emergence herbicidal action against VIOTR; conditions: 20 g/ha, post-emergence at one-leaf stage, rated visually after about 3 weeks vs untreated controls
Procedure: as §1, with “VIOTR: Viola tricolor” for “AMARE: Amaranthus retroflexus”

[8] = test system: Abutilon theophrasti (ABUTH); assay: Post-emergence herbicidal action against ABUTH; conditions: 20 g/ha, post-emergence at one-leaf stage, rated visually after about 3 weeks vs untreated controls
Procedure: as §1, with “ABUTH: Abutilon theophrasti” for “AMARE: Amaranthus retroflexus”

Setaria viridis (SETVI) = assay: Post-emergence herbicidal action against SETVI; conditions: 20 g/ha, post-emergence at one-leaf stage, rated visually after about 3 weeks vs untreated controls
Procedure: as §1, with “SETVI: Setaria viridis” for “AMARE: Amaranthus retroflexus”

| SMILES | Post-emergence action against AMARE [1] [%] | Post-emergence action against STEME (Stellaria media (STEME) [2]) [%] | Post-emergence action against VERPE (Veronica persica (VERPE) [3]) [%] | Pre-emergence action against AMARE ([4]; 80 g/ha) [%] | Pre-emergence action against STEME (Stellaria media (STEME) [5]) [%] | Pre-emergence action against VERPE (Veronica persica (VERPE) [6]) [%] | Post-emergence action against ECHCG [7] [%] | Post-emergence action against VIOTR (Viola tricolor (VIOTR)) [%] | Post-emergence action against ABUTH [8] [%] | Pre-emergence action against AMARE ([4]; 320 g/ha) [%] | Post-emergence action against SETVI (Setaria viridis (SETVI)) [%] |
| --- | --- | --- | --- | --- | --- | --- | --- | --- | --- | --- | --- |
| Cn1ncc(C(=O)c2ccc(C(F)(F)F)c3c2SCS3(=O)=O)c1O [Example 1-85] | 90 | 80 | 80 | 100 | 100 | 90 |  |  |  |  |  |
| Cc1nn(C)c(O)c1C(=O)c1ccc(C(F)(F)F)c2c1SCS2 [Example 1-68] | 90 |  |  | 100 | 100 |  | 80 | 80 |  |  |  |
| CCn1ncc(C(=O)c2ccc(C(F)(F)F)c3c2OCS3)c1O [Example 1-18] |  | 90 |  |  |  |  | 80 | 100 | 80 | 100 | 80 |
